Key:
Test in all cases: relative viability (nuclei count vs DMSO), 5 days (fraction); higher = more cells survive
JZL-184 = compound: C1CN(CCC1C(C2=CC3=C(C=C2)OCO3)(C4=CC5=C(C=C4)OCO5)O)C(=O)OC6=CC=C(C=C6)[N+](=O)[O-] [JZL-184]
Summary of the method: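 Acceptance criteria were a control CV below 25% and at least one doubling per plate. Lung cancer cell lines in 1536-well plates got five library-drug doses (not always all listed) √10 apart by pinning and were left 5 days with no medium change. Viability divides treated-well nuclei by vehicle-well nuclei and is the median across plates. Nuclei were counted by MetaXpress from 4× Hoechst images.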

JZL-184 + Alpelisib = compound: C1CN(CCC1C(C2=CC3=C(C=C2)OCO3)(C4=CC5=C(C=C4)OCO5)O)C(=O)OC6=CC=C(C=C6)[N+](=O)[O-] [JZL-184] + Cc1nc(NC(=O)N2CCC[C@H]2C(N)=O)sc1-c1ccnc(C(C)(C)C(F)(F)F)c1 [Alpelisib] (partner 2 µM)
Summary of the method: (§1)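 Dosing by pin tool came one day after lung cancer cell lines were seeded in 1536-well plates, using either one drug or a fixed anchor-drug dose plus five library-drug doses (not always all listed) in √10 steps. After 5 days, nuclei were counted on 4× images. Relative viability is treated-well nuclei count divided by vehicle-well nuclei count, and values are medians of duplicate plates.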

JZL-184 + Olaparib = compound: C1CN(CCC1C(C2=CC3=C(C=C2)OCO3)(C4=CC5=C(C=C4)OCO5)O)C(=O)OC6=CC=C(C=C6)[N+](=O)[O-] [JZL-184] + O=C(c1cc(Cc2n[nH]c(=O)c3ccccc23)ccc1F)N1CCN(C(=O)C2CC2)CC1 [Olaparib] (partner 8 µM)
Summary of the method: as §1

JZL-184 + Lapatinib = compound: C1CN(CCC1C(C2=CC3=C(C=C2)OCO3)(C4=CC5=C(C=C4)OCO5)O)C(=O)OC6=CC=C(C=C6)[N+](=O)[O-] [JZL-184] + CS(=O)(=O)CCNCc1ccc(-c2ccc3ncnc(Nc4ccc(OCc5cccc(F)c5)c(Cl)c4)c3c2)o1 [Lapatinib] (partner 2 µM)
Summary of the method: as §1

JZL-184 + Pictilisib = compound: C1CN(CCC1C(C2=CC3=C(C=C2)OCO3)(C4=CC5=C(C=C4)OCO5)O)C(=O)OC6=CC=C(C=C6)[N+](=O)[O-] [JZL-184] + CS(=O)(=O)N1CCN(Cc2cc3nc(-c4cccc5[nH]ncc45)nc(N4CCOCC4)c3s2)CC1 [Pictilisib] (partner 1 µM)
Summary of the method: as §1

JZL-184 + Linsitinib = compound: C1CN(CCC1C(C2=CC3=C(C=C2)OCO3)(C4=CC5=C(C=C4)OCO5)O)C(=O)OC6=CC=C(C=C6)[N+](=O)[O-] [JZL-184] + C[C@]1(O)C[C@@H](c2nc(-c3ccc4ccc(-c5ccccc5)nc4c3)c3c(N)nccn32)C1 [Linsitinib] (partner 1 µM)
Summary of the method: as §1

JZL-184 + Foretinib = compound: C1CN(CCC1C(C2=CC3=C(C=C2)OCO3)(C4=CC5=C(C=C4)OCO5)O)C(=O)OC6=CC=C(C=C6)[N+](=O)[O-] [JZL-184] + COc1cc2c(Oc3ccc(NC(=O)C4(C(=O)Nc5ccc(F)cc5)CC4)cc3F)ccnc2cc1OCCCN1CCOCC1 [Foretinib] (partner 0.25 µM)
Summary of the method: as §1

JZL-184 + Crizotinib = compound: C1CN(CCC1C(C2=CC3=C(C=C2)OCO3)(C4=CC5=C(C=C4)OCO5)O)C(=O)OC6=CC=C(C=C6)[N+](=O)[O-] [JZL-184] + C[C@@H](Oc1cc(-c2cnn(C3CCNCC3)c2)cnc1N)c1c(Cl)ccc(F)c1Cl [Crizotinib] (partner 1 µM)
Summary of the method: as §1

JZL-184 + Navitoclax = compound: C1CN(CCC1C(C2=CC3=C(C=C2)OCO3)(C4=CC5=C(C=C4)OCO5)O)C(=O)OC6=CC=C(C=C6)[N+](=O)[O-] [JZL-184] + CC1(C)CCC(c2ccc(Cl)cc2)=C(CN2CCN(c3ccc(C(=O)NS(=O)(=O)c4ccc(N[C@H](CCN5CCOCC5)CSc5ccccc5)c(S(=O)(=O)C(F)(F)F)c4)cc3)CC2)C1 [Navitoclax] (partner 0.5 µM)
Summary of the method: as §1

JZL-184 + Bortezomib = compound: C1CN(CCC1C(C2=CC3=C(C=C2)OCO3)(C4=CC5=C(C=C4)OCO5)O)C(=O)OC6=CC=C(C=C6)[N+](=O)[O-] [JZL-184] + CC(C)C[C@H](NC(=O)[C@H](Cc1ccccc1)NC(=O)c1cnccn1)B(O)O [Bortezomib] (partner 0.002 µM)
Summary of the method: as §1

Question: Calu-6 was tested. Which relative viability (JZL-184; 0.04 µM) did it give?
Answer: Its relative viability is 1.05.

Question: And the relative viability (JZL-184; 0.4 µM)?
Answer: The relative viability was 0.981.

Question: What about the relative viability (JZL-184; 1.265 µM) of the same cell line?
Answer: Its relative viability is 1.01.

Question: And the relative viability (JZL-184; 4 µM)?
Answer: Its relative viability is 0.971.

Question: And the relative viability (JZL-184 + Alpelisib; first compound 0.04 µM)?
Answer: Its relative viability is 1.17.

Question: What about the relative viability (JZL-184 + Alpelisib; first compound 0.4 µM) of the same cell line?
Answer: Its relative viability is 0.984.

Question: And the relative viability (JZL-184 + Alpelisib; first compound 1.265 µM)?
Answer: Its relative viability is 0.98.

Question: And the relative viability (JZL-184 + Alpelisib; first compound 4 µM)?
Answer: The relative viability was 0.886.

Question: What about the relative viability (JZL-184 + Olaparib; first compound 0.04 µM) of the same cell line?
Answer: The relative viability was 0.565.

Question: And the relative viability (JZL-184 + Olaparib; first compound 0.4 µM)?
Answer: The relative viability was 0.495.

Question: And the relative viability (JZL-184 + Olaparib; first compound 1.265 µM)?
Answer: The relative viability was 0.534.

Question: What about the relative viability (JZL-184 + Olaparib; first compound 4 µM) of the same cell line?
Answer: Its relative viability is 0.623.

Question: And the relative viability (JZL-184 + Lapatinib; first compound 0.04 µM)?
Answer: The relative viability was 1.14.

Question: And the relative viability (JZL-184 + Lapatinib; first compound 0.4 µM)?
Answer: Its relative viability is 1.04.

Question: And the relative viability (JZL-184 + Lapatinib; first compound 1.265 µM)?
Answer: Its relative viability is 1.02.

Question: What about the relative viability (JZL-184 + Lapatinib; first compound 4 µM) of the same cell line?
Answer: The relative viability was 1.1.

Question: What about the relative viability (JZL-184 + Pictilisib; first compound 0.04 µM) of the same cell line?
Answer: Its relative viability is 0.993.

Question: And the relative viability (JZL-184 + Pictilisib; first compound 0.4 µM)?
Answer: The relative viability was 0.865.

Question: And the relative viability (JZL-184 + Pictilisib; first compound 1.265 µM)?
Answer: Its relative viability is 1.

Question: And the relative viability (JZL-184 + Pictilisib; first compound 4 µM)?
Answer: Its relative viability is 0.91.

Question: And the relative viability (JZL-184 + Linsitinib; first compound 0.04 µM)?
Answer: Its relative viability is 0.984.

Question: What about the relative viability (JZL-184 + Linsitinib; first compound 0.4 µM) of the same cell line?
Answer: Its relative viability is 0.95.

Question: What about the relative viability (JZL-184 + Linsitinib; first compound 1.265 µM) of the same cell line?
Answer: Its relative viability is 0.985.

Question: And the relative viability (JZL-184 + Linsitinib; first compound 4 µM)?
Answer: The relative viability was 0.906.

Question: And the relative viability (JZL-184 + Foretinib; first compound 0.04 µM)?
Answer: Its relative viability is 0.946.

Question: What about the relative viability (JZL-184 + Foretinib; first compound 0.4 µM) of the same cell line?
Answer: Its relative viability is 0.83.

Question: What about the relative viability (JZL-184 + Foretinib; first compound 1.265 µM) of the same cell line?
Answer: The relative viability was 0.887.

Question: And the relative viability (JZL-184 + Foretinib; first compound 4 µM)?
Answer: The relative viability was 0.855.

Question: And the relative viability (JZL-184 + Crizotinib; first compound 0.04 µM)?
Answer: Its relative viability is 1.08.

Question: And the relative viability (JZL-184 + Crizotinib; first compound 0.4 µM)?
Answer: The relative viability was 0.709.

Question: And the relative viability (JZL-184 + Crizotinib; first compound 1.265 µM)?
Answer: The relative viability was 0.776.

Question: What about the relative viability (JZL-184 + Crizotinib; first compound 4 µM) of the same cell line?
Answer: The relative viability was 0.784.

Question: What about the relative viability (JZL-184 + Navitoclax; first compound 0.04 µM) of the same cell line?
Answer: The relative viability was 0.845.

Question: And the relative viability (JZL-184 + Navitoclax; first compound 0.4 µM)?
Answer: Its relative viability is 0.807.

Question: And the relative viability (JZL-184 + Navitoclax; first compound 1.265 µM)?
Answer: Its relative viability is 0.852.

Question: What about the relative viability (JZL-184 + Navitoclax; first compound 4 µM) of the same cell line?
Answer: Its relative viability is 0.798.

Question: And the relative viability (JZL-184 + Bortezomib; first compound 0.04 µM)?
Answer: The relative viability was 1.11.

Question: What about the relative viability (JZL-184 + Bortezomib; first compound 0.4 µM) of the same cell line?
Answer: Its relative viability is 0.925.

Question: What about the relative viability (JZL-184 + Bortezomib; first compound 1.265 µM) of the same cell line?
Answer: Its relative viability is 1.

Question: What about the relative viability (JZL-184 + Bortezomib; first compound 4 µM) of the same cell line?
Answer: Its relative viability is 1.06.

Question: What does the source list for EBC-1?
Answer: relative viability (JZL-184; 0.04 µM): 1.06; relative viability (JZL-184; 0.4 µM): 0.992; relative viability (JZL-184; 1.265 µM): 0.995; relative viability (JZL-184; 4 µM): 1.03; relative viability (JZL-184 + Alpelisib; first compound 0.04 µM): 0.982; relative viability (JZL-184 + Alpelisib; first compound 0.4 µM): 0.795; relative viability (JZL-184 + Alpelisib; first compound 1.265 µM): 0.802; relative viability (JZL-184 + Alpelisib; first compound 4 µM): 0.754; relative viability (JZL-184 + Olaparib; first compound 0.04 µM): 0.655; relative viability (JZL-184 + Olaparib; first compound 0.4 µM): 0.744; relative viability (JZL-184 + Olaparib; first compound 1.265 µM): 0.671; relative viability (JZL-184 + Olaparib; first compound 4 µM): 0.666; relative viability (JZL-184 + Lapatinib; first compound 0.04 µM): 0.176; relative viability (JZL-184 + Lapatinib; first compound 0.4 µM): 0.239; relative viability (JZL-184 + Lapatinib; first compound 1.265 µM): 0.204; relative viability (JZL-184 + Lapatinib; first compound 4 µM): 0.209; relative viability (JZL-184 + Pictilisib; first compound 0.04 µM): 0.347; relative viability (JZL-184 + Pictilisib; first compound 0.4 µM): 0.287; relative viability (JZL-184 + Pictilisib; first compound 1.265 µM): 0.506; relative viability (JZL-184 + Pictilisib; first compound 4 µM): 0.364; relative viability (JZL-184 + Linsitinib; first compound 0.04 µM): 0.971; relative viability (JZL-184 + Linsitinib; first compound 0.4 µM): 0.848; relative viability (JZL-184 + Linsitinib; first compound 1.265 µM): 0.929; relative viability (JZL-184 + Linsitinib; first compound 4 µM): 0.832; relative viability (JZL-184 + Foretinib; first compound 0.04 µM): 0.101; relative viability (JZL-184 + Foretinib; first compound 0.4 µM): 0.0992; relative viability (JZL-184 + Foretinib; first compound 1.265 µM): 0.0837; relative viability (JZL-184 + Foretinib; first compound 4 µM): 0.106; relative viability (JZL-184 + Crizotinib; first compound 0.04 µM): 0.21; relative viability (JZL-184 + Crizotinib; first compound 0.4 µM): 0.189; relative viability (JZL-184 + Crizotinib; first compound 1.265 µM): 0.195; relative viability (JZL-184 + Crizotinib; first compound 4 µM): 0.193; relative viability (JZL-184 + Navitoclax; first compound 0.04 µM): 0.442; relative viability (JZL-184 + Navitoclax; first compound 0.4 µM): 0.427; relative viability (JZL-184 + Navitoclax; first compound 1.265 µM): 0.45; relative viability (JZL-184 + Navitoclax; first compound 4 µM): 0.342; relative viability (JZL-184 + Bortezomib; first compound 0.04 µM): 0.595; relative viability (JZL-184 + Bortezomib; first compound 0.4 µM): 0.514; relative viability (JZL-184 + Bortezomib; first compound 1.265 µM): 0.558; relative viability (JZL-184 + Bortezomib; first compound 4 µM): 0.455

Reference: the supplement of paper PMC10307832
